# Assay results taken from patent publication US6740642B2, “Macrolides with antibacterial activity” (BAsilea Parmaceutica AG, priority 2000, dated 2004).
# How the values were obtained:
# H. influenzae 11 = assay: MIC, agar dilution, HTM medium; type: cell-based, Haemophilus influenzae; settings: Haemophilus influenzae, read-out: MIC
# From the text: (§1) The biological activities of compounds of the present invention against Haemophilus influenzae have been determined by standard agar dilution method using HTM medium (National Committee for Clinical Laboratory Standards. 1997. Methods for dilution antimicrobial susceptibility tests for bacteria that grow aerobically, 4th edition. Approved standard M7-A4. National Committee for Clinical Laboratory Standards, Wayne, Pa.).
# H. influenzae 12214 = assay: MIC, agar dilution, HTM medium; type: cell-based, Haemophilus influenzae; settings: Haemophilus influenzae, read-out: MIC
# From the text: as §1
# H. influenzae 1 = assay: MIC, agar dilution, HTM medium; type: cell-based, Haemophilus influenzae; settings: Haemophilus influenzae, read-out: MIC
# From the text: as §1
# H. influenzae 23145 = assay: MIC, agar dilution, HTM medium; type: cell-based, Haemophilus influenzae; settings: Haemophilus influenzae, read-out: MIC
# From the text: as §1
# H. influenzae 23369 = assay: MIC, agar dilution, HTM medium; type: cell-based, Haemophilus influenzae; settings: Haemophilus influenzae, read-out: MIC
# From the text: as §1
# H. influenzae 2947 = assay: MIC, agar dilution, HTM medium; type: cell-based, Haemophilus influenzae; settings: Haemophilus influenzae, read-out: MIC
# From the text: as §1
# H. influenzae 3201 = assay: MIC, agar dilution, HTM medium; type: cell-based, Haemophilus influenzae; settings: Haemophilus influenzae, read-out: MIC
# From the text: as §1
# H. influenzae 3457 = assay: MIC, agar dilution, HTM medium; type: cell-based, Haemophilus influenzae; settings: Haemophilus influenzae, read-out: MIC
# From the text: as §1
# H. influenzae 3640 = assay: MIC, agar dilution, HTM medium; type: cell-based, Haemophilus influenzae; settings: Haemophilus influenzae, read-out: MIC
# From the text: as §1
# H. influenzae 4139 = assay: MIC, agar dilution, HTM medium; type: cell-based, Haemophilus influenzae; settings: Haemophilus influenzae, read-out: MIC
# From the text: as §1
# H. influenzae ATCC 49247 = assay: MIC, agar dilution, HTM medium; type: cell-based, Haemophilus influenzae; settings: Haemophilus influenzae, ATCC49247, read-out: MIC
# From the text: as §1
# H. influenzae ATCC 9334 = assay: MIC, agar dilution, HTM medium; type: cell-based, Haemophilus influenzae; settings: Haemophilus influenzae, ATCC9334, read-out: MIC
# From the text: as §1
# H. influenzae B 1501 = assay: MIC, agar dilution, HTM medium; type: cell-based, Haemophilus influenzae; settings: Haemophilus influenzae, B1501, read-out: MIC
# From the text: as §1
# H. influenzae Christy = assay: MIC, agar dilution, HTM medium; type: cell-based, Haemophilus influenzae; settings: Haemophilus influenzae, read-out: MIC
# From the text: as §1
# H. influenzae H13 LAH = assay: MIC, agar dilution, HTM medium; type: cell-based, Haemophilus influenzae; settings: Haemophilus influenzae, H13LAH, read-out: MIC
# From the text: as §1
# H. influenzae H20 HDL = assay: MIC, agar dilution, HTM medium; type: cell-based, Haemophilus influenzae; settings: Haemophilus influenzae, H20HDL, read-out: MIC
# From the text: as §1
# H. influenzae H28 HEL = assay: MIC, agar dilution, HTM medium; type: cell-based, Haemophilus influenzae; settings: Haemophilus influenzae, H28HEL, read-out: MIC
# From the text: as §1
# H. influenzae H36 ODL = assay: MIC, agar dilution, HTM medium; type: cell-based, Haemophilus influenzae; settings: Haemophilus influenzae, H36ODL, read-out: MIC
# From the text: as §1
# H. influenzae QK 12/87 = assay: MIC, agar dilution, HTM medium; type: cell-based, Haemophilus influenzae; settings: Haemophilus influenzae, QK12/87, read-out: MIC
# From the text: as §1
# H. influenzae QK 50 = assay: MIC, agar dilution, HTM medium; type: cell-based, Haemophilus influenzae; settings: Haemophilus influenzae, QK50, read-out: MIC
# From the text: as §1
# H. influenzae Rd KW20 = assay: MIC, agar dilution, HTM medium; type: cell-based, Haemophilus influenzae; settings: Haemophilus influenzae, RDKW20, read-out: MIC
# From the text: as §1
# S. aureus 1086 = assay: MIC, standard microdilution; type: cell-based, Staphylococcus aureus; settings: Staphylococcus aureus, read-out: minimum inhibitory concentration (MIC)
# From the text: (§2) The antibacterial activities of the compounds have been determined by standard microdilution technique (National Committee for Clinical Laboratory Standards. 1997. Methods for dilution antimicrobial susceptibility tests for bacteria that grow aerobically, 4th edition. Approved standard M7-A4. National Committee for Clinical Laboratory Standards, Wayne, Pa.).
# S. aureus 745 = assay: MIC, standard microdilution; type: cell-based, Staphylococcus aureus; settings: Staphylococcus aureus, read-out: minimum inhibitory concentration (MIC)
# From the text: as §2
# S. aureus ATCC29213 = assay: MIC, standard microdilution; type: cell-based, Staphylococcus aureus; settings: Staphylococcus aureus, read-out: minimum inhibitory concentration (MIC)
# From the text: as §2
# E. coli ATCC25922 = assay: MIC, standard microdilution; type: cell-based; settings: Escherichia coli, read-out: minimum inhibitory concentration (MIC)
# From the text: as §2
# [1] = tested on: P. aeruginosa ATCC27853 (+Ery. 32 μg/ml); assay: MIC, standard microdilution; type: cell-based
# From the text: as §2
# St. pneumoniae 1/1 = assay: MIC, standard microdilution; type: cell-based, Streptococcus pneumoniae; settings: Streptococcus pneumoniae, read-out: minimum inhibitory concentration (MIC)
# From the text: as §2
# St. pneumoniae 1/4 = assay: MIC, standard microdilution; type: cell-based, Streptococcus pneumoniae; settings: Streptococcus pneumoniae, read-out: minimum inhibitory concentration (MIC)
# From the text: as §2
# St. pneumoniae 12288 = assay: MIC, standard microdilution; type: cell-based, Streptococcus pneumoniae; settings: Streptococcus pneumoniae, read-out: minimum inhibitory concentration (MIC)
# From the text: as §2
# St. pneumoniae SL199T = assay: MIC, standard microdilution; type: cell-based, Streptococcus pneumoniae; settings: Streptococcus pneumoniae, read-out: minimum inhibitory concentration (MIC)
# From the text: as §2
MIC (H. influenzae 11) [µg/mL],MIC (H. influenzae 12214) [µg/mL],MIC (H. influenzae 1) [µg/mL],MIC (H. influenzae 23145) [µg/mL],MIC (H. influenzae 23369) [µg/mL],MIC (H. influenzae 2947) [µg/mL],MIC (H. influenzae 3201) [µg/mL],MIC (H. influenzae 3457) [µg/mL],MIC (H. influenzae 3640) [µg/mL],MIC (H. influenzae 4139) [µg/mL],MIC (H. influenzae ATCC 49247) [µg/mL],MIC (H. influenzae ATCC 9334) [µg/mL],MIC (H. influenzae B 1501) [µg/mL],MIC (H. influenzae Christy) [µg/mL],MIC (H. influenzae H13 LAH) [µg/mL],MIC (H. influenzae H20 HDL) [µg/mL],MIC (H. influenzae H28 HEL) [µg/mL],MIC (H. influenzae H36 ODL) [µg/mL],MIC (H. influenzae QK 12/87) [µg/mL],MIC (H. influenzae QK 50) [µg/mL],Structure (SMILES),also measured
2,2,2,2,4,2,2,0.5,1,0.5,2,2,1,2,2,1,1,2,0.5,2,"CC[C@H]1OC(=O)[C@H](C)[C@@H](O[C@H]2C[C@@](C)(OC)[C@@H](O)C(C)O2)[C@H](C)[C@@H](O[C@@H]2OC(C)C[C@H](N(C)C)[C@H]2O)[C@](C)(O)C[C@@H](C)CN(C)C(C)C(O)[C@]1(C)O (stereo partly drawn) [Azithromycin (3), azithromycin]",MIC (H. influenzae Rd KW20): 2 µg/mL
16,8,8,8,16,16,16,1,4,4,8,8,8,8,8,4,4,16,2,8,"CC[C@H]1OC(=O)[C@H](C)[C@@H](O[C@H]2C[C@@](C)(OC)[C@@H](O)[C@H](C)O2)[C@H](C)[C@@H](O[C@@H]2O[C@H](C)C[C@H](N(C)C)[C@H]2O)[C@](C)(OC)C[C@@H](C)C(=O)[C@H](C)[C@@H](O)[C@]1(C)O [Clarithromycin (2), clarithromycin]",MIC (S. aureus 1086): 16 µg/mL; MIC (S. aureus 745): > 16 µg/mL; MIC (S. aureus ATCC29213): 0.25 µg/mL; MIC (E. coli ATCC25922): > 16 µg/mL; minimum inhibitory concentration (MIC) [1]: >16 µg/mL; MIC (St. pneumoniae 1/1): ≤ 0.12 µg/mL; MIC (St. pneumoniae 1/4): 16 µg/mL; MIC (St. pneumoniae 12288): > 16 µg/mL; MIC (St. pneumoniae SL199T): 16 µg/mL; MIC (H. influenzae Rd KW20): 8 µg/mL
